Our source for the EC50 values is patent US20240239861A1, “GLUCAGON-RECEPTOR SELECTIVE POLYPEPTIDES AND METHODS OF USE THEREOF” (i2O Therapeutics, Inc., priority 2016, published 2024).

The structures appear in SMILES notation. Where a SMILES comes first, the peptide text is derived from it. [ ]: non-standard residue; d: D form. Aib = CC(C)(N)C(=O)O

The target of the experiment is human GLP-1R (Homo sapiens, UniProt P43220). Nature of the experiment: Peptide-receptor mediated cAMP accumulation (LANCE Ultra cAMP) in CHO-K1 cells transfected with human GLP-1R. It is filed as cell-based. The conditions noted are these: hGLP1 pEC50 (cAMP mean (n = 3): 11 point curve starting at 1 nM, Table 3).
Sequence of human GLP-1R (P43220 24-463): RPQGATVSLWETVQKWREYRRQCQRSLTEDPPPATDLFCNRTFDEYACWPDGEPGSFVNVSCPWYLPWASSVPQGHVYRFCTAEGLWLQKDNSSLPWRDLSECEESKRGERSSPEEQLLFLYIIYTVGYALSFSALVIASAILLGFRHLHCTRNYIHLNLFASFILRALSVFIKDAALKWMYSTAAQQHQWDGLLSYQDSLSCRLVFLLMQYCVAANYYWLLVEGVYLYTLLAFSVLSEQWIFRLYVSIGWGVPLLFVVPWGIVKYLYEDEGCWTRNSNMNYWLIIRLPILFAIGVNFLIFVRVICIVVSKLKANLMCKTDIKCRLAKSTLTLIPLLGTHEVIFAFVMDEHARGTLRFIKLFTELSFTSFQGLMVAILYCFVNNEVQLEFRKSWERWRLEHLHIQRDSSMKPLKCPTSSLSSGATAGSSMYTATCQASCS
For the compound `CC(C)C[C@H](NC(=O)[C@H](Cc1c[nH]c2ccccc12)NC(=O)[C@H](CCCCN)NC(=O)[C@H](CO)NC(=O)[C@H](Cc1ccc(O)cc1)NC(=O)[C@H](CC(=O)O)NC(=O)[C@H](CO)NC(=O)[C@@H](NC(=O)[C@H](Cc1ccccc1)NC(=O)[C@@H](NC(=O)CNC(=O)[C@H](Cc1c[nH]cn1)NC(=O)[C@H](CO)NC(=O)[C@@H](N)Cc1ccc(O)cc1)[C@@H](C)O)[C@@H](C)O)C(=O)N[C@@H](CC(=O)O)C(=O)N[C@@H](CO)C(=O)N[C@@H](C)C(=O)N[C@@H](CCCNC(=N)N)C(=O)N[C@@H](C)C(=O)N[C@@H](CCC(N)=O)C(=O)N[C@@H](CCC(=O)O)C(=O)N[C@@H](Cc1ccccc1)C(=O)N[C@H](C(=O)N[C@@H](CCCCN)C(=O)N[C@@H](Cc1c[nH]c2ccccc12)C(=O)N[C@@H](CC(C)C)C(=O)N[C@@H](CCC(=O)O)C(=O)N[C@@H](CC(=O)O)C(=O)N[C@@H](CCC(=O)O)C(=O)N1CCC[C@H]1C(=O)N[C@@H](CO)C(=O)N[C@@H](CO)C(=O)NCC(=O)N[C@@H](C)C(=O)N1CCC[C@H]1C(=O)N1CCC[C@H]1C(=O)N1CCC[C@H]1C(=O)N[C@@H](CO)C(=O)O)C(C)C` [Compound A38] (H-YSHGTFTSDYSKWLDSARAQEFVKWLEDEPSSGAPPPS-OH; N-terminus assumed), the EC50 (usually the concentration at which the effect is half-maximal) was above 1 nM.
Under `CC[C@H](C)[C@H](NC(=O)[C@@H]1CCCN1C(=O)[C@@H]1CCCN1C(=O)[C@H](CCCCN)NC(=O)[C@H](CC(N)=O)NC(=O)[C@H](CCCNC(=N)N)NC(=O)[C@H](CCCCN)NC(=O)[C@H](CCC(=O)O)NC(=O)[C@H](CC(=O)O)NC(=O)[C@H](CCC(=O)O)NC(=O)[C@H](CC(C)C)NC(=O)[C@H](Cc1c[nH]c2ccccc12)NC(=O)C(C)(C)NC(=O)[C@@H](NC(=O)[C@H](Cc1ccccc1)NC(=O)[C@H](CCC(=O)O)NC(=O)[C@H](CCC(N)=O)NC(=O)[C@H](C)NC(=O)[C@H](CCCNC(=N)N)NC(=O)[C@H](CCCCN)NC(=O)C(C)(C)NC(=O)[C@H](CC(=O)O)NC(=O)[C@H](CC(C)C)NC(=O)[C@H](Cc1ccc(O)cc1)NC(=O)[C@H](CCCCN)NC(=O)[C@H](CO)NC(=O)[C@H](Cc1ccc(O)cc1)NC(=O)[C@H](CC(=O)O)NC(=O)[C@H](CO)NC(=O)[C@@H](NC(=O)[C@H](Cc1ccccc1)NC(=O)[C@@H](NC(=O)CNC(=O)[C@H](Cc1c[nH]cn1)NC(=O)[C@H](CO)NC(=O)[C@@H](N)Cc1ccc(O)cc1)[C@@H](C)O)[C@@H](C)O)C(C)C)C(=O)N[C@@H](C)C(=O)O` [Compound A46] (H-YSHGTFTSDYSKYLD[Aib]KRAQEFV[Aib]WLEDEKRNKPPIA-OH; N-terminus assumed) stands above 1 nM; under `CC(C)C[C@H](NC(=O)[C@H](Cc1ccc(O)cc1)NC(=O)[C@H](CCCCN)NC(=O)[C@H](CO)NC(=O)[C@H](Cc1ccc(O)cc1)NC(=O)[C@H](CC(=O)O)NC(=O)[C@H](CO)NC(=O)[C@@H](NC(=O)[C@H](Cc1ccccc1)NC(=O)[C@@H](NC(=O)CNC(=O)[C@H](Cc1c[nH]cn1)NC(=O)[C@H](CO)NC(=O)[C@@H](N)Cc1ccc(O)cc1)[C@@H](C)O)[C@@H](C)O)C(=O)N[C@@H](CC(=O)O)C(=O)NC(C)(C)C(=O)N[C@@H](CCCCN)C(=O)N[C@@H](CCCNC(=N)N)C(=O)N[C@@H](C)C(=O)N[C@@H](CCC(N)=O)C(=O)N[C@@H](CCC(=O)O)C(=O)N[C@@H](Cc1ccccc1)C(=O)N[C@H](C(=O)NC(C)(C)C(=O)N[C@@H](Cc1c[nH]c2ccccc12)C(=O)N[C@@H](CC(C)C)C(=O)N[C@@H](CCC(=O)O)C(=O)N[C@@H](CC(=O)O)C(=O)N[C@@H](CCC(=O)O)C(=O)N1CCC[C@H]1C(=O)N[C@@H](CCCNC(=N)N)C(=O)N[C@@H](CC(N)=O)C(=O)N[C@@H](CCCCN)C(=O)N[C@@H](CC(N)=O)C(=O)N[C@@H](CC(N)=O)C(=O)N1CCC[C@H]1C(=O)N1CCC[C@H]1C(=O)N[C@@H](CO)C(=O)O)C(C)C` [Compound A49] (H-YSHGTFTSDYSKYLD[Aib]KRAQEFV[Aib]WLEDEPRNKNNPPS-OH; N-terminus assumed), above 1 nM.
Under `CC(C)C[C@H](NC(=O)[C@H](CC(=O)O)NC(=O)[C@H](CC(C)C)NC(=O)[C@H](Cc1ccc(O)cc1)NC(=O)[C@H](CCCCN)NC(=O)[C@H](CO)NC(=O)[C@H](Cc1ccc(O)cc1)NC(=O)[C@H](CC(=O)O)NC(=O)[C@H](CO)NC(=O)[C@@H](NC(=O)[C@H](Cc1ccccc1)NC(=O)[C@@H](NC(=O)CNC(=O)[C@H](Cc1c[nH]cn1)NC(=O)[C@H](CO)NC(=O)[C@@H](N)Cc1ccc(O)cc1)[C@@H](C)O)[C@@H](C)O)C(=O)N[C@@H](CCCCN)C(=O)N[C@@H](CCCNC(=N)N)C(=O)N[C@@H](C)C(=O)N[C@@H](CCC(N)=O)C(=O)N[C@@H](CCC(=O)O)C(=O)N[C@@H](Cc1ccccc1)C(=O)N[C@H](C(=O)NC(C)(C)C(=O)N[C@@H](Cc1c[nH]c2ccccc12)C(=O)N[C@@H](CC(C)C)C(=O)N[C@@H](CCC(=O)O)C(=O)N[C@@H](CC(=O)O)C(=O)N[C@@H](CCC(=O)O)C(=O)N1CCC[C@H]1C(=O)N[C@@H](CO)C(=O)N[C@@H](CO)C(=O)NCC(=O)N[C@@H](C)C(=O)N1CCC[C@H]1C(=O)N1CCC[C@H]1C(=O)N1CCC[C@H]1C(=O)N[C@@H](CO)C(=O)O)C(C)C` [Compound A51] (H-YSHGTFTSDYSKYLDLKRAQEFV[Aib]WLEDEPSSGAPPPS-OH; N-terminus assumed) stands above 1 nM.
Then `CC(C)C[C@H](NC(=O)[C@H](Cc1ccc(O)cc1)NC(=O)[C@H](CCCCN)NC(=O)[C@H](CO)NC(=O)[C@H](Cc1ccc(O)cc1)NC(=O)[C@H](CC(=O)O)NC(=O)[C@H](CO)NC(=O)[C@@H](NC(=O)[C@H](Cc1ccccc1)NC(=O)[C@@H](NC(=O)CNC(=O)[C@H](Cc1c[nH]cn1)NC(=O)[C@H](CO)NC(=O)[C@@H](N)Cc1ccc(O)cc1)[C@@H](C)O)[C@@H](C)O)C(=O)N[C@@H](CC(=O)O)C(=O)NC(C)(C)C(=O)N[C@@H](CCCCN)C(=O)N[C@@H](CCCNC(=N)N)C(=O)N[C@@H](C)C(=O)N[C@@H](CCC(N)=O)C(=O)N[C@@H](CCC(=O)O)C(=O)N[C@@H](Cc1ccccc1)C(=O)N[C@H](C(=O)NC(C)(C)C(=O)N[C@@H](Cc1c[nH]c2ccccc12)C(=O)N[C@@H](CC(C)C)C(=O)N[C@@H](CCC(=O)O)C(=O)N[C@@H](CC(=O)O)C(=O)N[C@@H](CCC(=O)O)C(=O)N1CCC[C@H]1C(=O)N[C@@H](CO)C(=O)N[C@@H](CO)C(=O)N[C@@H](CCCCN)C(=O)N[C@@H](CO)C(=O)N1CCC[C@H]1C(=O)N1CCC[C@H]1C(=O)N1CCC[C@H]1C(=O)N[C@@H](CO)C(=O)O)C(C)C` [Compound A55] (H-YSHGTFTSDYSKYLD[Aib]KRAQEFV[Aib]WLEDEPSSKSPPPS-OH; N-terminus assumed), with above 1 nM; and `CC(C)C[C@H](NC(=O)[C@H](Cc1ccc(O)cc1)NC(=O)[C@H](CCCCN)NC(=O)[C@H](CO)NC(=O)[C@H](Cc1ccc(O)cc1)NC(=O)[C@H](CC(=O)O)NC(=O)[C@H](CO)NC(=O)[C@@H](NC(=O)[C@H](Cc1ccccc1)NC(=O)[C@@H](NC(=O)CNC(=O)[C@H](Cc1c[nH]cn1)NC(=O)[C@H](CO)NC(=O)[C@@H](N)Cc1ccc(O)cc1)[C@@H](C)O)[C@@H](C)O)C(=O)N[C@@H](CC(=O)O)C(=O)NC(C)(C)C(=O)N[C@@H](CCCCN)C(=O)N[C@@H](CCCNC(=N)N)C(=O)N[C@@H](C)C(=O)N[C@@H](CCC(N)=O)C(=O)N[C@@H](CCC(=O)O)C(=O)N[C@@H](Cc1ccccc1)C(=O)N[C@H](C(=O)NC(C)(C)C(=O)N[C@@H](Cc1c[nH]c2ccccc12)C(=O)N[C@@H](CC(C)C)C(=O)N[C@@H](CCC(=O)O)C(=O)N[C@@H](CC(=O)O)C(=O)N[C@@H](CCC(=O)O)C(=O)N1CCC[C@H]1C(=O)N[C@@H](CO)C(=O)N[C@@H](CO)C(=O)N[C@@H](CCCCN)C(=O)N[C@@H](CCC(N)=O)C(=O)N1CCC[C@H]1C(=O)N1CCC[C@H]1C(=O)N1CCC[C@H]1C(=O)N[C@@H](CO)C(=O)O)C(C)C` [Compound A59] (H-YSHGTFTSDYSKYLD[Aib]KRAQEFV[Aib]WLEDEPSSKQPPPS-OH; N-terminus assumed), with above 1 nM; and `CC(C)C[C@H](NC(=O)[C@H](Cc1ccc(O)cc1)NC(=O)[C@H](CCCCN)NC(=O)[C@H](CO)NC(=O)[C@H](Cc1ccc(O)cc1)NC(=O)[C@H](CC(=O)O)NC(=O)[C@H](CO)NC(=O)[C@@H](NC(=O)[C@H](Cc1ccccc1)NC(=O)[C@@H](NC(=O)CNC(=O)[C@H](Cc1c[nH]cn1)NC(=O)[C@H](CO)NC(=O)[C@@H](N)Cc1ccc(O)cc1)[C@@H](C)O)[C@@H](C)O)C(=O)N[C@@H](CC(=O)O)C(=O)NC(C)(C)C(=O)N[C@@H](CCCCN)C(=O)N[C@@H](CCCNC(=N)N)C(=O)N[C@@H](C)C(=O)N[C@@H](CCC(N)=O)C(=O)N[C@@H](CCC(=O)O)C(=O)N[C@@H](Cc1ccccc1)C(=O)N[C@H](C(=O)NC(C)(C)C(=O)N[C@@H](Cc1c[nH]c2ccccc12)C(=O)N[C@@H](CC(C)C)C(=O)N[C@@H](CCC(=O)O)C(=O)N[C@@H](CC(=O)O)C(=O)N[C@@H](CCC(=O)O)C(=O)N1CCC[C@H]1C(=O)N[C@@H](CCCCN)C(=O)N[C@@H](CO)C(=O)N[C@@H](CCCCN)C(=O)N[C@@H](CCC(=O)O)C(=O)N1CCC[C@H]1C(=O)N1CCC[C@H]1C(=O)N1CCC[C@H]1C(=O)N[C@@H](CO)C(N)=O)C(C)C` [Compound A65] (H-YSHGTFTSDYSKYLD[Aib]KRAQEFV[Aib]WLEDEPKSKEPPPS-NH2; N-terminus assumed), with above 1 nM.
`CC(C)C[C@H](NC(=O)[C@H](Cc1ccc(O)cc1)NC(=O)[C@H](CCCCN)NC(=O)[C@H](CO)NC(=O)[C@H](Cc1ccc(O)cc1)NC(=O)[C@H](CC(=O)O)NC(=O)[C@H](CO)NC(=O)[C@@H](NC(=O)[C@H](Cc1ccccc1)NC(=O)[C@@H](NC(=O)CNC(=O)[C@H](Cc1c[nH]cn1)NC(=O)[C@H](CO)NC(=O)[C@@H](N)Cc1ccc(O)cc1)[C@@H](C)O)[C@@H](C)O)C(=O)N[C@@H](CC(=O)O)C(=O)NC(C)(C)C(=O)N[C@@H](CCCCN)C(=O)N[C@@H](CCCNC(=N)N)C(=O)N[C@@H](C)C(=O)N[C@@H](CCC(N)=O)C(=O)N[C@@H](CCC(=O)O)C(=O)N[C@@H](Cc1ccccc1)C(=O)N[C@H](C(=O)NC(C)(C)C(=O)N[C@@H](Cc1c[nH]c2ccccc12)C(=O)N[C@@H](CC(C)C)C(=O)N[C@@H](CCC(=O)O)C(=O)N[C@@H](CC(=O)O)C(=O)N[C@@H](CCC(=O)O)C(=O)N1CCC[C@H]1C(=O)N[C@@H](CCCCN)C(=O)N[C@@H](CO)C(=O)N[C@@H](CCCCN)C(=O)N[C@@H](CO)C(=O)N1CCC[C@H]1C(=O)N1CCC[C@H]1C(=O)N1CCC[C@H]1C(=O)N[C@@H](CO)C(N)=O)C(C)C` [Compound A66] (H-YSHGTFTSDYSKYLD[Aib]KRAQEFV[Aib]WLEDEPKSKSPPPS-NH2; N-terminus assumed) showed a concentration giving a half-maximal response (EC50) above 1 nM.
